Experimental data taken from patent publication US4277474A, “Treatment of allergic symptoms with propanone derivatives” (Nippon Zoki Pharmaceutical Co., Ltd., priority 1978, dated 1981).
Structures can show the parent of a compound that is named as a salt.

Assays:
SRS-A = assay: Anti-SRS-A effect on guinea pig's ileum (Magnus method)
Description: The anti-SRS-A effect of the compounds according to the present invention on guinea pig's ileum was measured by Magnus method. […] One minute thereafter, the ileum contraction inhibiting rate (%) was measured with use of 1 ml of 80% ethanol solution of SRS-A (150 mg/ml).

Peritoneal cavity cells = assay: Inhibitory effect on histamine release from sensitized peritoneal cavity cells; type: cell-based, rat (Wistar-strain); set-up: Released histamine, fluorescence intensity / Residual histamine, fluorescence intensity / Total histamine, fluorescence intensity: unit not given here; details: for Histamine release rate / Released histamine, fluorescence intensity / Residual histamine, fluorescence intensity / Total histamine, fluorescence intensity / Net release rate / inhibition at 10 µM: 0.01 mM; for Net release rate: release not caused by antigen-antibody reaction deducted
Description: The inhibitory effect on histamine release of the compounds according to the present invention was investigated as follows. […] These cells were suspended in a phosphoric acid buffer solution (containing 0.1% of gelatin) and each 0.5 ml portion of this suspension was taken in a polyethylene tube. 1 ml each of solutions of various concentrations of test compound and 0.5 ml of 200 μg/ml of ovalbumin solution were added therein. They were incubated for 20 minutes at 37° C. to measure the histamine release rate. The amount of histamine was measured by a modified Shore method using fluorescence.

[1] = Acute toxicity in mice (LD50, Litchfield-Wilcoxon); details: mouse, in vivo, ICR male mice
Description: Acute toxicity tests were carried out by intraperitoneal or peroral administration of the compound according to the present invention to groups of 10 ICR-strain male mice (weighing 20 g on the average), and each LD50 value was determined by Litchfield-Wilcoxon Method.

[2] = system: Hartley-strain male guinea pig; assay: Experimental atopic asthma in passively sensitized guinea pigs; type: in vivo; details: 50 mg/kg peroral
Description: [Levine, B. B. et al., J. Immunol., 106, 29(1971)] was injected at a dosage of 0.25 ml/guinea pig into the hearts of groups of Hartley-strain male guinea pig (a group consisting of four), each weighing 250-300 g, to make them passively sensitive. […] The rate of breathing and the ratio of expiration time to inspiration time were calculated from the velocity of breathing. As an antigen to induce the reaction 200 μg/kg of benzylpenicilloyl bovine serum albumin [(BPO)23 -BSA] obtained by the method of Levine et al. [Levine et al.; J. Clin. Invest., 47, 556 (1968)] was injected through a cannula into the jugular vein.

homo PCA reaction = assay: Inhibitory effect on homo PCA reaction in rats; type: in vivo

With `Cc1ccc(C(=O)C(C)CN2CCCCC2)cc1C.Cl` (stereo not drawn) [Example 5, 2,3',4'-trimethyl-3-piperidinopropiophenone hydrochloride] the “ileum contraction inhibiting rate” value (SRS-A; 10^-4 g/ml) was 100.0 ± 0%, the “ileum contraction inhibiting rate” value (SRS-A; 10^-5 g/ml) was 67.7 ± 8.11% and the “ileum contraction inhibiting rate” value (SRS-A; 10^-6 g/ml) was 12.3 ± 8.25%. For the same molecule, the Histamine release rate (Peritoneal cavity cells) was 42.9%, the “Released histamine, fluorescence intensity” value (Peritoneal cavity cells) was 210 and the “Residual histamine, fluorescence intensity” value (Peritoneal cavity cells) was 280. For the same molecule, the “Total histamine, fluorescence intensity” value (Peritoneal cavity cells) was 490, the Net release rate (Peritoneal cavity cells) was 29.0% and the inhibition at 10 µM (Peritoneal cavity cells; Rattus norvegicus) was 11.3%. It also gave an LD50 ([1]; ip, intraperitoneal) of 117 mg/kg, an LD50 ([1]; po, peroral) of 325 mg/kg and an Expiration/inspiration ([2]; 1 min, 1 h before induction) of 77.6 ± 3.68%. It also gave a Rate of breathing ([2]; 1 min, 1 h before induction) of 122.0 ± 16.99%, a Volume of breathing ([2]; 1 min, 1 h before induction) of 100.5 ± 5.01% and an Expiration/inspiration ([2]; 3 min, 1 h before induction) of 92.3 ± 2.19%. The Rate of breathing ([2]; 3 min, 1 h before induction) was 93.7 ± 7.20%, the Volume of breathing ([2]; 3 min, 1 h before induction) was 86.9 ± 5.99% and the Expiration/inspiration ([2]; 6 min, 1 h before induction) was 98.7 ± 3.93%. It also gave a Rate of breathing ([2]; 6 min, 1 h before induction) of 93.7 ± 5.80%, a Volume of breathing ([2]; 6 min, 1 h before induction) of 86.4 ± 6.96% and an Expiration/inspiration ([2]; 18 min, 1 h before induction) of 97.7 ± 2.62%. For the same molecule, the Rate of breathing ([2]; 18 min, 1 h before induction) was 99.9 ± 4.00%, the Volume of breathing ([2]; 18 min, 1 h before induction) was 86.3 ± 3.71% and the Expiration/inspiration ([2]; 30 min, 1 h before induction) was 103.2 ± 1.10%. The Rate of breathing ([2]; 30 min, 1 h before induction) was 92.5 ± 1.76%, the Volume of breathing ([2]; 30 min, 1 h before induction) was 86.6 ± 2.44% and the Expiration/inspiration ([2]; 60 min, 1 h before induction) was 94.3 ± 3.87%. For the same molecule, the Rate of breathing ([2]; 60 min, 1 h before induction) was 97.0 ± 1.81%, the Volume of breathing ([2]; 60 min, 1 h before induction) was 93.5 ± 6.17% and the Expiration/inspiration ([2]; 90 min, 1 h before induction) was 96.7 ± 4.58%. It also gave a Rate of breathing ([2]; 90 min, 1 h before induction) of 90.7 ± 6.14%, a Volume of breathing ([2]; 90 min, 1 h before induction) of 93.5 ± 3.78% and an Expiration/inspiration ([2]; 130 min, 1 h before induction) of 106.2 ± 5.28%. It also gave a Rate of breathing ([2]; 130 min, 1 h before induction) of 92.9 ± 5.33%, a Volume of breathing ([2]; 130 min, 1 h before induction) of 87.4 ± 3.03% and an Expiration/inspiration ([2]; 180 min, 1 h before induction) of 100.1 ± 2.03%. The Rate of breathing ([2]; 180 min, 1 h before induction) was 97.5 ± 1.82%, the Volume of breathing ([2]; 180 min, 1 h before induction) was 95.1 ± 3.33% and the Expiration/inspiration ([2]; before test) was 100.0 ± 0.00%. The Rate of breathing ([2]; before test) was 100.0 ± 0.00%, the Volume of breathing ([2]; before test) was 100.0 ± 0.00% and the “inhibitory effect on homo PCA reaction, dose dependence (in words)” value (homo PCA reaction) was “their effects depended on the dose”. For the same molecule, the “inhibition of homo PCA reaction” value (homo PCA reaction; 200 mg/Kg peroral) was “about 70%”.
In the case of `CC(CN1CCCCC1)C(=O)c1ccc2ccccc2c1` (stereo not drawn) [Example 2, 2-methyl-3-piperidino-β-propionaphthone hydrochloride], the “ileum contraction inhibiting rate” value (SRS-A; 10^-4 g/ml) is reported as 76.0 ± 7.23%, the “ileum contraction inhibiting rate” value (SRS-A; 10^-5 g/ml) is reported as 53.7 ± 8.68% and the “ileum contraction inhibiting rate” value (SRS-A; 10^-6 g/ml) is reported as 10.0 ± 8.08%. The Histamine release rate (Peritoneal cavity cells) was 38.6%, the “Released histamine, fluorescence intensity” value (Peritoneal cavity cells) was 184 and the “Residual histamine, fluorescence intensity” value (Peritoneal cavity cells) was 292. The “Total histamine, fluorescence intensity” value (Peritoneal cavity cells) was 476, the Net release rate (Peritoneal cavity cells) was 24.7% and the inhibition at 10 µM (Peritoneal cavity cells; Rattus norvegicus) was 24.5%. The inhibition at 100 µM (Peritoneal cavity cells; Rattus norvegicus, 0.1 mM, read-out: Inhibitory effect on histamine release) was 60%, the LD50 ([1]; ip, intraperitoneal) was 120 mg/kg and the LD50 ([1]; po, peroral) was 370 mg/kg. It also gave an Expiration/inspiration ([2]; 1 min, 1 h before induction) of 78.4 ± 9.00%, a Rate of breathing ([2]; 1 min, 1 h before induction) of 120.8 ± 3.19% and a Volume of breathing ([2]; 1 min, 1 h before induction) of 108.2 ± 1.78%. It also gave an Expiration/inspiration ([2]; 3 min, 1 h before induction) of 108.7 ± 11.36%, a Rate of breathing ([2]; 3 min, 1 h before induction) of 90.3 ± 3.36% and a Volume of breathing ([2]; 3 min, 1 h before induction) of 86.7 ± 4.14%. For the same molecule, the Expiration/inspiration ([2]; 6 min, 1 h before induction) was 99.8 ± 4.30%, the Rate of breathing ([2]; 6 min, 1 h before induction) was 92.2 ± 5.69% and the Volume of breathing ([2]; 6 min, 1 h before induction) was 90.3 ± 8.26%. For the same molecule, the Expiration/inspiration ([2]; 18 min, 1 h before induction) was 106.5 ± 5.25%, the Rate of breathing ([2]; 18 min, 1 h before induction) was 91.6 ± 5.71% and the Volume of breathing ([2]; 18 min, 1 h before induction) was 86.0 ± 8.49%. The Expiration/inspiration ([2]; 30 min, 1 h before induction) was 100.3 ± 3.41%, the Rate of breathing ([2]; 30 min, 1 h before induction) was 96.4 ± 4.09% and the Volume of breathing ([2]; 30 min, 1 h before induction) was 93.7 ± 3.75%. For the same molecule, the Expiration/inspiration ([2]; 60 min, 1 h before induction) was 97.0 ± 3.47%, the Rate of breathing ([2]; 60 min, 1 h before induction) was 96.2 ± 3.62% and the Volume of breathing ([2]; 60 min, 1 h before induction) was 96.6 ± 4.92%. It also gave an Expiration/inspiration ([2]; 90 min, 1 h before induction) of 96.5 ± 3.18%, a Rate of breathing ([2]; 90 min, 1 h before induction) of 94.0 ± 5.23% and a Volume of breathing ([2]; 90 min, 1 h before induction) of 97.6 ± 7.12%. It also gave an Expiration/inspiration ([2]; 130 min, 1 h before induction) of 106.4 ± 4.19%, a Rate of breathing ([2]; 130 min, 1 h before induction) of 94.3 ± 6.97% and a Volume of breathing ([2]; 130 min, 1 h before induction) of 92.1 ± 9.25%. It also gave an Expiration/inspiration ([2]; 180 min, 1 h before induction) of 108.7 ± 6.81%, a Rate of breathing ([2]; 180 min, 1 h before induction) of 98.2 ± 5.42% and a Volume of breathing ([2]; 180 min, 1 h before induction) of 97.8 ± 7.28%. For the same molecule, the Expiration/inspiration ([2]; before test) was 100.0 ± 0.00%, the Rate of breathing ([2]; before test) was 100.0 ± 0.00% and the Volume of breathing ([2]; before test) was 100.0 ± 0.00%. For the same molecule, the “inhibitory effect on homo PCA reaction, dose dependence (in words)” value (homo PCA reaction) was “their effects depended on the dose” and the “inhibition of homo PCA reaction” value (homo PCA reaction; 5 mg/Kg intravenous) was 62.1%.
